On the set-up of data set [1]: method as in Cross et al., 2014. The settings on record: WT mice; ref Cross et al., 2014; cited from earlier work.
The nature of data set [2]: Osimertinib pharmacokinetics in 8HUM mice: effect of rifampicin and β-naphthoflavone. The note with it: female, mouse, in vivo, po, 25 mg/kg; for AUC / Cmax: female 8HUM mice, osimertinib 25 mg/kg oral. An excerpt:
Humans and rodents metabolize drugs down different pathways and also generate different metabolites both in their site of oxidation as well as in different metabolite ratios when multiple sites of oxidation are involved. […] Mice were pretreated with either RIF or a combination of RIF and β-naphthoflavone (BNF), an aryl hydrocarbon receptor agonist that induces P450s in the CYP1A gene family.
Fig. 4. […] Osimertinib structure and sites of metabolism in humans (C) are also shown. […] Panel B prints no name for the measured substance; it is presumably Osimertinib, the name printed in panel A.

Data set [3] addresses CYP2D6 (Homo sapiens, UniProt P10635, R296C/S486T). Kind of data set: Enzyme inhibition assay, debrisoquine 4-hydroxylation (HLM, 8HUM microsomes). The note with it: 8HUM microsomes […]; debrisoquine 67 μM in cocktail; furafylline 3, enoxacin 200, fluconazole 300, sulfaphenazole 3, quinidine 3, paroxetine 10, ketoconazole 1 μM. Here is the method:
(§1) After a 5-minute preincubation at 37°C, reactions were initiated by addition of NADPH (1.3 mM). […] The samples were then centrifuged at 3000g for 55 minutes at 4°C, and an aliquot of the supernatant fraction was analyzed by LC-MS/MS. All experiments were performed at least in triplicate.

For data set [4], the system named is CYP3A4. In words: CYP3A4 induction by PXR activators in humanized CAR/PXR/CYP3A4 mice. The settings on record: CAR/PXR/CYP3A4 model (Supplemental Fig. 4). An excerpt: We therefore sought to identify a specific, clinically relevant PXR agonist that was nontoxic. […] Subsequent studies were therefore undertaken using SJW to induce CYP3A4 expression in 8HUM mice.

The target of data set [5] is T1, CYP3A4 (Homo sapiens, UniProt P08684).
T1 construct: pooled rifampicin-treated male and female 8HUM mice (8HUM) or pooled human liver microsomes (HLM); host or cells: liver microsomes: pooled human liver; liver of 8HUM mice carrying human CYP3A4/CYP3A7 under the human promoter
T1 sequence (P08684 whole entry): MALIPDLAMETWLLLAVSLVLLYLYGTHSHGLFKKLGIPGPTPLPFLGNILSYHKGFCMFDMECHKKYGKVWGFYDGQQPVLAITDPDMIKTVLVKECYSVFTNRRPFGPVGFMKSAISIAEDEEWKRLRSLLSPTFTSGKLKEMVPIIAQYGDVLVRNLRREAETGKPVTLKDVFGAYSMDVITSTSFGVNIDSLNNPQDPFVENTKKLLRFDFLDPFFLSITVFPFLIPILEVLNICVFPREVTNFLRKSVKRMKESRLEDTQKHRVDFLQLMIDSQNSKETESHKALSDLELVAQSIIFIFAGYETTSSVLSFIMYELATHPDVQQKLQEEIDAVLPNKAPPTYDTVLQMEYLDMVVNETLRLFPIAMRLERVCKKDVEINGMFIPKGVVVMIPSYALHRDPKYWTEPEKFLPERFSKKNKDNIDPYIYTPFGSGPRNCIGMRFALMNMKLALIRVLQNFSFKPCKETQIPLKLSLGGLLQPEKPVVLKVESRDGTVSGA
Kind of data set: 7-Benzyloxyquinoline O-debenzylation in liver microsomes of rifampicin- or vehicle-treated 8HUM mice. The format is in vitro ADME. The settings on record: liver microsomes of rifampicin-treated 8HUM mice. For orientation: Liver microsomes are a subcellular fraction often used to study metabolism.

Data set [6] deals with T1, CYP3A4. In words: Kinetic parameters of 1-hydroxyl midazolam formation in liver microsomes (HLM, 8HUM). The format is in vitro ADME. The settings on record: pH 7.4. Here is the method: All samples were handled in amber tubes under conditions of subdued light for the duration of the procedure. […] The samples were then centrifuged at 3000g for 55 minutes at 4°C and an aliquot of the supernatant fraction was analyzed by LC-MS/MS.
Calibration curves were constructed with authentic metabolite standards and linear regression analysis used to calculate the amount of metabolite formed in each test sample. […] The 7-ethoxyresorufin O-deethylation assay was carried out as detailed below.

Data set [7] is described as follows: Pharmacokinetics of cassette-dosed probe drugs in 8HUM mice with or without rifampicin pretreatment. The settings on record: female, mouse, in vivo, po, AUCall, female 8HUM mice, oral cassette: caffeine, debrisoquine, tolbutamide 5 mg/kg, midazolam 3 mg/kg. Here is the method:
Female 8HUM mice received either two daily intraperitoneal doses of RIF (n = 4; 20–26 weeks) or vehicle (corn oil; n = 4; 25–29 weeks). […] Blood samples (10 μl) were collected at the indicated time points after dosing, mixed immediately with 10 μl of heparin (15 IU/ml), snap frozen in liquid nitrogen, and stored at approximately −70°C prior to analysis (see Supplemental Data for details).
Pharmacokinetic parameters were calculated by Phoenix WinNonlin version 8.0.0.3176 (Certara, Princeton, NJ).
Fig. 2. […] Data shown are mean ± S.D.

The target in data set [8] is T2, CYP1A2 (Homo sapiens, UniProt P05177).
T2 sequence (P05177 1-516): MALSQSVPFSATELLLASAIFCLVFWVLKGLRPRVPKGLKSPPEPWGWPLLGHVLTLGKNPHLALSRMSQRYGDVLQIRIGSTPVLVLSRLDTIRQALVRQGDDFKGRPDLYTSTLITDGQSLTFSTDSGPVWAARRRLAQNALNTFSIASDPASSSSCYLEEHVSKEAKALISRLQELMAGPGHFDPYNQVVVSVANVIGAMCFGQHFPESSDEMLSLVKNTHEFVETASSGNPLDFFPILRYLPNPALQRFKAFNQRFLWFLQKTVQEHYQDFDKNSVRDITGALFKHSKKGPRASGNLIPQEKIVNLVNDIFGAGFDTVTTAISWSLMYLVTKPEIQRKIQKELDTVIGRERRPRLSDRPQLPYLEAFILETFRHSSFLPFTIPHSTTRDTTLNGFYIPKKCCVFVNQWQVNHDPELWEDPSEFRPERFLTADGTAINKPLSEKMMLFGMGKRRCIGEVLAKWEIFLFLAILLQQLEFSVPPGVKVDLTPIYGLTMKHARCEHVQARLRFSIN
In words: Enzyme inhibition assay, caffeine to paraxanthine (HLM, 8HUM microsomes). The settings on record: caffeine 220 μM in cocktail, furafylline 3, enoxacin 200, fluconazole 300, sulfaphenazole 3, quinidine 3, paroxetine 10, ketoconazole 1 μM. Here is the method:
as §1

The subject of data set [9] is CYP2D6. Kind of data set: Enzyme inhibition assay, debrisoquine 4-hydroxylation (HLM, 8HUM microsomes). The settings on record: for Debrisoquine (4-OH Debrisoquine) activity, percent of activity measured in the absence of inhibitor: HLM […], debrisoquine 67 μM in cocktail, furafylline 3, enoxacin 200, fluconazole 300, sulfaphenazole 3, quinidine 3, paroxetine 10, ketoconazole 1 μM. The protocol:
as §1

Data set [10] deals with T3, CYP2C9 (Homo sapiens, UniProt P11712). In words: Enzyme inhibition assay, tolbutamide hydroxylation (HLM, 8HUM microsomes). The settings on record: tolbutamide 2 μM in cocktail, furafylline 3, enoxacin 200, fluconazole 300, sulfaphenazole 3, quinidine 3, paroxetine 10, ketoconazole 1 μM. Here is the method: as §1
T3 sequence (P11712 whole entry): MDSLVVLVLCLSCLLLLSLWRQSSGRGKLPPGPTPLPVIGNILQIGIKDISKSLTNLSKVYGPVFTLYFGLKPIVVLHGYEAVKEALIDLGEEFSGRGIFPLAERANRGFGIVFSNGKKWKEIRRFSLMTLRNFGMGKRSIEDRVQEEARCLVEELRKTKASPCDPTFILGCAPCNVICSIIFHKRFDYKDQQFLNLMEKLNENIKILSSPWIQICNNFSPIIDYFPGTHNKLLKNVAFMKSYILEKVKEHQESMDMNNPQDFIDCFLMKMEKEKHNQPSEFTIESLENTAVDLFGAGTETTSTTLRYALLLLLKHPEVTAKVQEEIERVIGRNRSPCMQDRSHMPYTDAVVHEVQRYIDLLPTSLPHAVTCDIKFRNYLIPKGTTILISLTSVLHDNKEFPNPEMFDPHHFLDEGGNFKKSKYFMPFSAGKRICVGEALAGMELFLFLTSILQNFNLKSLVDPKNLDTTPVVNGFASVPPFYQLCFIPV
Data set [11] addresses T3, CYP2C9. The settings on record: sulfaphenazole 50 μM.
The target of data set [12] is T2, CYP1A2. In words: in vitro. The settings on record: 8HUM, mouse, microsomes, pH 7.4, Inhibition of 7-methoxyresorufin metabolism.
Procedure: (§2) A mixture of either 7-methoxyresorufin or 7-ethoxyresorufin (1 μM) and 8HUM liver microsomes or HLM (∼0.38 mg protein/ml) in 100 mM potassium phosphate buffer (pH 7.4) supplemented with MgCl2 (3.3 mM) was incubated at 37°C for 5 minutes before the addition of NADPH (final concentration 1.2 mM). […] Slopes of the linear part of the kinetic curves were calculated using Ascent Software Version 2.4.1 (Labsystems). For each reaction two controls, with and without reaction product resorufin (40 pmol) were run. Fluorescence was measured from both control wells and the difference in fluorescence intensity between wells with and without resorufin was used for the conversion of the relative fluorescence units to the picomoles of the reaction product.
Data set [13] addresses T2, CYP1A2.
Procedure: as §2
The mark [14] stands for this setting: RIF + BNF 80 mg/kg i.p. daily 3 days.
Setting [15] is: RIF in diet (equivalent 10 mg/kg) 3 days.

What is called half-life is the time in which the quantity being followed falls by half. The Km is the substrate concentration at which the rate is half of its maximum. For orientation: inhibition means the relative decrease from the control value, in per cent.

Read-outs that look alike come from different tables or passages of the source.

As to `C=CC(=O)Nc1cc(Nc2nccc(-c3cn(C)c4ccccc34)n2)c(OC)cc1N(C)CCN(C)C` [osimertinib], the half-life in [1] is 3.5 h; in data set [2] (8HUM mice, osimertinib 25 mg/kg by oral gavage), 1200 min. For the same molecule, the results for the AUC in [2] (Control (normal RM1 diet)), in data set [2] (setting [14]) and in data set [2] (setting [15]) were 3750 ± 614 ng·h/mL, 661 ± 132 ng·h/mL and 2140 ± 631 ng·h/mL, respectively. Besides, the results for the Cmax in data set [2] (Control (normal RM1 diet)), in [2] (setting [14]) and in data set [2] (setting [15]) were 199 ± 29 ng/mL, 71 ± 7 ng/mL and 139 ± 26 ng/mL, respectively.

As for `C=C[C@H]1C[N@@]2CC[C@H]1C[C@@H]2[C@@H](O)c1ccnc2ccc(OC)cc12` [Quinidine, quinidine], the “Debrisoquine (4-OH Debrisoquine) activity, percent of activity measured in the absence of inhibitor” value at CYP2D6 [3] is on record as 43 ± 5%.

Regarding `O=C1Nc2ccc(Cl)cc2[C@@](C#CC2CC2)(C(F)(F)F)O1` [EFV, efavirenz], in the data set on CYP3A4 [4], the “Induction of CYP3A4” value is listed as “effective inducers of CYP3A4”.

For `c1ccc(COc2ccc3cccnc3c2)cc1` [7-BQ, 7-benzyloxyquinoline], the “Rate of 7-BQ hydroxylation (metabolism)” value at CYP3A4 [5] is recorded as 4218 ± 550 pmol/min per milligram.

`Cc1ncc2n1-c1ccc(Cl)cc1C(c1ccccc1F)=NC2` [Midazolam, midazolam]: the Km at 2 min at CYP3A4 [6] (both sexes, 8HUM, mouse, liver microsomes of pooled rifampicin-treated 8HUM mice) came out at 1200 ± 300 nM; on CYP3A4 [6] (human, pooled human liver microsomes), 730 ± 200 nM. Moreover, the AUC in data set [7] (rifampicin 10 mg/kg i.p. daily for 2 days pretreatment) came out at 68.8 ± 21.1 ng·h/mL; in data set [7] (vehicle (corn oil) i.p. pretreatment), 860 ± 138 ng·h/mL.

Turning to `OC(Cn1cncn1)(Cn1cncn1)c1ccc(F)cc1F` [Fluconazole, fluconazole], the “Caffeine (Paraxanthine) activity, percent of activity measured in the absence of inhibitor” value is 100 ± 31% at CYP1A2 [8] (8HUM microsomes […]) and 114 ± 37% at CYP1A2 [8] (HLM […]). The “Debrisoquine (4-OH Debrisoquine) activity, percent of activity measured in the absence of inhibitor” value at CYP2D6 [3] was 88 ± 19%; in the data set with CYP2D6 [9], 96 ± 9%. Also, the “Tolbutamide (OH-Tolbutamide) activity, percent of activity measured in the absence of inhibitor” value came to 41 ± 33% on CYP2C9 [10] (8HUM microsomes […]) and 35 ± 21% at CYP2C9 [10] (HLM […]).

Regarding `Nc1ccc(S(=O)(=O)Nc2ccnn2-c2ccccc2)cc1` [Sulfaphenazole, sulfaphenazole], the results for the “Remaining tolbutamide 4-hydroxylation activity in the presence of inhibitor” value at CYP2C9 [11] (liver microsomes of control 8HUM mice) and at CYP2C9 [11] (liver microsomes of rifampicin-treated 8HUM mice) were 2.01 ± 0.33 pmol/min per milligram and 11.43 ± 9.38 pmol/min per milligram, respectively. In addition, the “Tolbutamide (OH-Tolbutamide) activity, percent of activity measured in the absence of inhibitor” value worked out at 28 ± 15% at CYP2C9 [10] (8HUM microsomes […]) and 14 ± 4% at CYP2C9 [10] (HLM […]).

For `Fc1ccc([C@@H]2CCNC[C@H]2COc2ccc3c(c2)OCO3)cc1` [Paroxetine, paroxetine], the “Debrisoquine (4-OH Debrisoquine) activity, percent of activity measured in the absence of inhibitor” value in the data set on CYP2D6 [9] was determined as 52 ± 11%. Also, the “Species difference in extent of inhibition of debrisoquine 4-hydroxylation (HLM vs 8HUM microsomes)” value in the data set on CYP2D6 [9] (HLM vs microsomes from 8HUM mice) was 4 fold.

Regarding `CCC1(c2ccccc2)C(=O)NC(=O)NC1=O` [PB, phenobarbital], the “Induction of CYP3A4” value in the data set with CYP3A4 [4] is listed as “effective inducers of CYP3A4”.

With `O=c1cc(-c2ccccc2)oc2c1ccc1ccccc12` [α-naphthoflavone], the inhibition at 3.33 μM on CYP1A2 [12] turned out to be 75%.

With `Cc1nc2c([nH]1)c(=O)n(C)c(=O)n2Cc1ccco1` [Furafylline, furafylline], the entries for the “Debrisoquine (4-OH Debrisoquine) activity, percent of activity measured in the absence of inhibitor” value on CYP2D6 [3] and with CYP2D6 [9] were 91 ± 13% and 65 ± 9%, respectively. The “Tolbutamide (OH-Tolbutamide) activity, percent of activity measured in the absence of inhibitor” value was 63 ± 19% on CYP2C9 [10] (8HUM microsomes […]) and 103 ± 25% at CYP2C9 [10] (HLM […]).

For `COc1ccc2nc3ccc(=O)cc-3oc2c1` [7-methoxyresorufin], on CYP1A2 [13], the “Rate of 7-methoxyresorufin metabolism” value is 42.84 ± 9.93 pmol/min per milligram.

Values taken from publication PMC6505380, “An Extensively Humanized Mouse Model to Predict Pathways of Drug Disposition and Drug/Drug Interactions, and to Facilitate Design of Clinical Trials” (Drug Metabolism and Disposition, 2019).
